Where a name gives a salt, the structure may show the parent alone. Read-outs that look alike come from different tables or passages of the source.
Assays:
clinical = conditions: male, human, plasma, other: intranasal (nasal spray), 10 mg
From the text: The total number of healthy adult male subjects enrolled was twelve. Throughout the study, the conditions of their hospital stay, a dietary pattern, a water consumption regimen, a physical activity regimen for the volunteers were standardized. The clinical step of study consisted of a screening, two study periods, a washout period, and the final examination. The total duration of study, starting from the screening through the completion of study, was approximately three weeks with a seven-day wash-out period between medication administrations. Each study period was preceded by inpatient hospitalization in the evening of the previous day. […] In each study period the following was done: the intake of the medications under study whose prescription was determined by a simple randomization method; blood sampling for the determination of active pharmaceutical ingredient concentration; the measurement of vital data such as blood pressure (BP), heart rate; and questionnaire survey of volunteers.
Blood was sampled as follows: 0 hours, 15 min., 30 min., 45 min., 1 hour, 1 hour 30 min., 2 hours, 2 hours 30 min., 3 hours, 4 hours, 6 hours, 8 hours, 12 hours, and 24 hours post-dosing. […] The actual sampling time was recorded. […]
AUC(0-∞) is AUC0-t plus the extrapolated AUC from time t to infinity [ng×h/mL]. The extrapolation is calculated from the last measured concentration (Ct): AUC(0-∞)=AUC(0-t)+Ct/Kel. […]

[1] = printed: following nasal use (administration); prior-art compositions, strong first-pass effect; cited from earlier work
[2] = 12 volunteers
From the text: The total number of healthy adult male subjects enrolled was twelve. Throughout the study, the conditions of their hospital stay, a dietary pattern, a water consumption regimen, a physical activity regimen for the volunteers were standardized. The clinical step of study consisted of a screening, two study periods, a washout period, and the final examination. The total duration of study, starting from the screening through the completion of study, was approximately three weeks with a seven-day wash-out period between medication administrations. Each study period was preceded by inpatient hospitalization in the evening of the previous day. The medications were dosed on Day 1 of each study period starting from 08:00 a.m. The subjects stayed in the centre for 24 hours after the administration of the medication under study in each study period. In each study period the following was done: the intake of the medications under study whose prescription was determined by a simple randomization method; blood sampling for the determination of active pharmaceutical ingredient concentration; the measurement of vital data such as blood pressure (BP), heart rate; and questionnaire survey of volunteers. […]

**Q.** For `Oc1ccc2c3c1O[C@H]1[C@@H](O)CC[C@@]4(O)[C@@H](C2)N(CC2CCC2)CC[C@]314` [nalbuphine, (5α.6α)-17-(cyclobutylmethyl)-4.5epoxy-morphinan-3.6.14-triol hydrochloride], which bioavailability (clinical) is on record?
**A.** Its bioavailability is 50%.

**Q.** What about the bioavailability of nalbuphine [1] of the same compound?
**A.** Its bioavailability of nalbuphine is 16.4 to 17.7%.

**Q.** What about the adverse reactions recorded ([2]; after intramuscular administration of 10 mg of nalbuphine) of the same compound?
**A.** The adverse reactions recorded was 24 cases.

**Q.** And the adverse reactions recorded ([2]; after intravenous administration of 10 mg of nalbuphine)?
**A.** Its adverse reactions recorded is 25 cases.

— patent US20230372327A1, “PHARMACEUTICAL COMPOSITION BASED ON […]/OR ITS SALTS FOR NASAL ADMINISTRATION” (Pharmbiotest Poland Sp. z o. o., priority 2020, published 2023)
